These results are taken from patent US5254677A, “β-galactosidase substrates for cedia” (Boehringer Mannheim GmbH, priority 1990, dated 1993).

Data set [1] is described as follows: Absorption maxima of the chromogen and associated extinction coefficients. To be noted: 0.1 mole/l. potassium phosphate buffer (pH 7.0); for ε (extinction coefficient): at the absorption maximum of the chromogen. In kind it is physicochemical. An excerpt: 1. Wavelengths of the absorption maxima of the chromogen and the associated extinction coefficients (ε).
Measurement in 0.1 mole/l. potassium phosphate buffer (pH 7.0) at the absorption maximum of the chromogen.

The target of data set [2] is T1, β-galactosidase (Escherichia coli, UniProt P00722).
T1 construct: not the CEDIA donor/acceptor fragments
The data set can be described thus: Enzyme activity: extinction change per minute with identical amounts of β-galactosidase (sensitivity and enzymatic cleavage rate of substrates). In kind it is biochemical. Conditions: measured at the absorption maximum of the particular chromogen (405/376/384/408 nm), 0.05M potassium phosphate buffer pH 7.0. As to the method: 2. Sensitivity comparison of the substrates and of their enzymatic cleavage rate.
The extinction change per minute (mE/min.) in the region of the absorption maximum (see Table 1) of the particular chromogen was determined with the use of identical amounts of the enzyme β-galactosidase: for the precise conditions see Example 4, II a) and b).
1) 0.05M potassium phosphate buffer, pH 7.0
2) 10 mmole/liter magnesium chloride solution
3) 69.8% (v/v) mercaptoethanol solution
4) p-galactosidase (Boehringer Mannheim GmbH, order No. 105 031)
5) substrate, 5.9 mg./ml. in solution a)
Pre-incubation: the following substances were pipetted into plastic cuvettes: […]
After mixing, the reaction was initiated: […]
Δ/min. was calculated from the linear range.

Data set [3] has as its system β-galactosidase formed from EA22 enzyme acceptor and ED4-thyroxine T4 conjugate. As to the kind of experiment: T4/CEDIA test (thyroxine T4 as hapten, monoclonal antibodies against T4), gradient of the calibration curve. In kind it is biochemical. Conditions: Hitachi 704, 37° C., substrate 1 mg./ml., 376 or 415 nm, percentage of 2-nitrophenyl-β-galactoside (=100%). The procedure: 3. Evaluation in the T4/CEDIA (CEDIA with thyroxine T4 as hapten and monoclonal antibodies against thyroxine T4).
The criterion for the evaluation of the individual substrates was the gradient of the calibration curve.
I) Carrying out of the T4/CEDIA test
Definitions: EA=enzyme acceptor; ED=enzyme donor; EA22 =cloned enzyme acceptor for CEDIA; ED4 =cloned enzyme donor for CEDIA. […] The amino acid sequences of these polypeptides are there disclosed.
ΔE/min. was measured in the interval of 9-10 minutes.
Calibration curves were produced for all substrates. Of these curves, the gradients were compared. [formula]
Gradient expressed as percentage value of the 2-nitrophenyl-β-galactoside (=100%) for T4/CEDIA.

Data set [4] has the same test system. Conditions: prior art substrate of U.S. Pat. No. 4,708,929; cited from earlier work.

T1 sequence (P00722 2-1024): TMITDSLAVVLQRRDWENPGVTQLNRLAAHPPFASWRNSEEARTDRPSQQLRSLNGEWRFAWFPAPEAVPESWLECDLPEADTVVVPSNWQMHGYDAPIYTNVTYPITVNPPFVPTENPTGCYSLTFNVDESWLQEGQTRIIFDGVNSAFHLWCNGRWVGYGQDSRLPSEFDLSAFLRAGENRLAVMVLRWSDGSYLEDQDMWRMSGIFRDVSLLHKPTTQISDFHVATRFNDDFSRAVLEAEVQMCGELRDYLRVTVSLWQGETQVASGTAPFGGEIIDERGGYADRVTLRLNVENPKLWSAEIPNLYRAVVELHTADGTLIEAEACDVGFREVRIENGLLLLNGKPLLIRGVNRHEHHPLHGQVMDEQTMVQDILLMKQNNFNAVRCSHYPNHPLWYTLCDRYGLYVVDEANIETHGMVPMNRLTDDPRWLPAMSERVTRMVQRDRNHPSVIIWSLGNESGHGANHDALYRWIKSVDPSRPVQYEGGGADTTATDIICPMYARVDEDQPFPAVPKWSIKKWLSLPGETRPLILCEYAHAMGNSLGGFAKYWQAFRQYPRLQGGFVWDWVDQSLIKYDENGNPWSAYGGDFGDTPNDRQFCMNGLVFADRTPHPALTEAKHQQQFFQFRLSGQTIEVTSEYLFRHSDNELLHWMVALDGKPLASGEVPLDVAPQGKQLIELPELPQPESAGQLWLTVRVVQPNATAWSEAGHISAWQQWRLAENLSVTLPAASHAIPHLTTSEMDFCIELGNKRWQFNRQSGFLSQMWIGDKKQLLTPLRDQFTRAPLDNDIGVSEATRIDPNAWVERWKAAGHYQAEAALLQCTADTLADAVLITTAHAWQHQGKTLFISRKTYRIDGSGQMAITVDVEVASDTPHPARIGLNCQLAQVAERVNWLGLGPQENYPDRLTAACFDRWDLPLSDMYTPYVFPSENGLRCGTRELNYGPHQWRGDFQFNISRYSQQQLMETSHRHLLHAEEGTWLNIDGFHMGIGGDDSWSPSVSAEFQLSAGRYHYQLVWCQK

Turning to `O=[N+]([O-])c1ccc(O)c(C(F)(F)F)c1` [2-CF3-4-nitrophenol, 2-Trifluoromethyl-4-nitrophenol], in data set [1], the lambda max was 384 nm and the “ε (extinction coefficient)” value was 18800 L/mol/cm.

On to `N#Cc1cc([N+](=O)[O-])ccc1O` [2-CN-4-nitrophenol, 2-Hydroxy-5-nitrobenzonitrile], for which, in data set [1], the lambda max is 376 nm and the “ε (extinction coefficient)” value was determined as 15700 L/mol/cm.

Turning to `O=[N+]([O-])c1ccc(O)c(Cl)c1` [2-Cl-4-nitrophenol], in data set [1], the lambda max turned out to be 405 nm and the “ε (extinction coefficient)” value came to 16600 L/mol/cm.

Regarding `O=[N+]([O-])c1ccccc1O` [2-nitrophenol], in data set [1], the lambda max is listed as 408 nm and the “ε (extinction coefficient)” value was found to be 2040 L/mol/cm.

With `O=[N+]([O-])c1ccc(O[C@@H]2O[C@H](CO)[C@H](O)[C@H](O)[C@H]2O)c(C(F)(F)F)c1` [Example 2-CF3-4-NPG, 2-trifluoromethyl-4-nitrophenyl-β-D-galactopyranoside], the “extinction change per minute” value in data set [2] is recorded as 0.109 mE/min. In addition, the “relative gradient of the calibration curve” value (from here on “relative gradient”) in data set [3] is on record as 528%.

Turning to `N#Cc1cc([N+](=O)[O-])ccc1O[C@@H]1O[C@H](CO)[C@H](O)[C@H](O)[C@H]1O` [Example 2-CN-4-NPG, 2-cyano-4-nitrophenyl-β-D-galactopyranoside], the “extinction change per minute” value in data set [2] worked out at 0.150 mE/min. In data set [3], the “relative gradient” value is reported as 561%.

For `O=[N+]([O-])c1ccc(O[C@@H]2O[C@H](CO)[C@H](O)[C@H](O)[C@H]2O)c(Cl)c1` [Example 2-Cl-4-NPG, 2-chloro-4-nitrophenyl-β-D-galactopyranoside, reference compound], the “extinction change per minute” value in data set [2] worked out at 0.085 mE/min. The “relative gradient” value in data set [3] is recorded as 494%.

Turning to `O=[N+]([O-])c1ccccc1O[C@@H]1O[C@H](CO)[C@H](O)[C@H](O)[C@H]1O` [oNPG, 2-nitrophenyl-β-D-galactopyranoside, reference compound], the “sensitivity as chromogenic enzyme substrate for CEDIA” value in data set [4] is listed as “low sensitivity”. Moreover, in data set [2], the “extinction change per minute” value stood at 0.024 mE/min. Also, the “relative gradient” value in data set [3] is listed as 100%.
